Consider ten molecules from ChEMBL document CHEMBL1201862, “PubChem BioAssay data set” (2004).

Some test systems named below: U-251; PC-3; MDA-N; A498; KM12; SW-620; SK-OV-3; MDA-MB-435; SF-295; SK-MEL-5; DU-145; MCF7; UACC-62; SK-MEL-28; SF-268; OVCAR-3; 786-0; TK-10; SN12C; BT-549.
Holding throughout (test): NCI anticancer screen, dose series, 48 h

Molecules are shown by their SMILES.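 Cultured in 96-well plates, cells were exposed to test compound for 48 hours across five concentrations. Abbreviation: GI50, concentration required for 50% inhibition of growth.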 Calls of active or inactive are those of the source. Cut-off read from the data, not from the text of the source: active = GI50 up to about 1.1 µM and inactive = higher. Some results are limits rather than exact numbers.

On to `Cc1ccc(S(=O)(=O)N/N=C2/CCCOC2)cc1`, for which the GI50 in the experiment on U-251, in the experiment with PC-3, with MDA-N, in the experiment with A498, in the experiment on KM12 and with SW-620 was > 100 µM (inactive) throughout. The GI50 in the experiment on SK-OV-3, in the experiment with MDA-MB-435, with SF-295, with SK-MEL-5, with DU-145 and with MCF7 was > 100 µM (inactive) in each case. Besides, the GI50 with UACC-62, in the experiment with SK-MEL-28, in the experiment with SF-268, in the experiment on OVCAR-3, in the experiment on 786-0 and in the experiment with TK-10 was > 100 µM (inactive) each time. For the same molecule, the GI50 in the experiment on SN12C and in the experiment with BT-549 was > 100 µM (inactive) in each case.
On to `CC[C@@]1(O)C(=O)OCc2c1cc1n(c2=O)Cc2cc3c(N)cccc3nc2-1` [9-AMINOCAMPTOTHECIN], for which the GI50 in the experiment with U-251 was 0.0108 µM (active); in the experiment on PC-3 it was 0.0728 µM (active); with MDA-N, 0.229 µM (active); with A498, 0.0794 µM (active); in the experiment with KM12 it was 0.23 µM (active); with SW-620 it was 0.0321 µM (active). The GI50 with SK-OV-3 is 0.0157 µM (active); in the experiment with MDA-MB-435 it was 0.118 µM (active); with SF-295 it was < 0.01 µM (active); in the experiment with SK-MEL-5 it was 0.0118 µM (active); in the experiment on DU-145 it was < 0.01 µM (active); in the experiment on MCF7 it was < 0.01 µM (active). Also, the GI50 is < 0.0102 µM (active) in the experiment with UACC-62; 0.177 µM (active) in the experiment with SK-MEL-28; < 0.01 µM (active) in the experiment on SF-268; 0.207 µM (active) in the experiment with OVCAR-3; < 0.01 µM (active) in the experiment with 786-0; 1.63 µM (inactive) in the experiment on TK-10. Besides, the GI50 in the experiment on SN12C is < 0.01 µM (active); in the experiment on BT-549, 0.0684 µM (active).
Regarding `COC(=O)c1ccccc1Nc1ccccc1C(=O)OC`, the GI50 with U-251 was 83.6 µM (inactive); in the experiment with PC-3, 39.5 µM (inactive); in the experiment on MDA-N, > 100 µM (inactive); in the experiment on A498, 52.8 µM (inactive); in the experiment on KM12, > 100 µM (inactive); with SW-620, > 100 µM (inactive). Besides, the GI50 is > 100 µM (inactive) in the experiment on SK-OV-3; > 100 µM (inactive) in the experiment with MDA-MB-435; 39.4 µM (inactive) in the experiment on SF-295; 54.7 µM (inactive) in the experiment on SK-MEL-5; > 100 µM (inactive) in the experiment with DU-145; > 100 µM (inactive) in the experiment on MCF7. Besides, the GI50 was > 100 µM (inactive) with UACC-62; > 100 µM (inactive) in the experiment with SK-MEL-28; 54.2 µM (inactive) in the experiment on SF-268; 79.6 µM (inactive) in the experiment with OVCAR-3; 53.5 µM (inactive) with 786-0; 41.2 µM (inactive) with TK-10. Further, the GI50 with SN12C and in the experiment with BT-549 was > 100 µM (inactive) each time.
For the molecule `CCOC(=O)[C@@H]1ON2OC(OC3CCCC3(c3ccccc3)c3ccccc3)C(OC(C)=O)[C@H]3OC(=O)[C@@H]1C32` (stereo not given in full), the GI50 is 42.8 µM (inactive) in the experiment on U-251; > 100 µM (inactive) in the experiment on PC-3; > 100 µM (inactive) in the experiment on MDA-N; > 100 µM (inactive) with A498; > 100 µM (inactive) in the experiment on KM12; > 100 µM (inactive) in the experiment on SW-620. Moreover, the GI50 is > 100 µM (inactive) in the experiment on SK-OV-3; 51.1 µM (inactive) with MDA-MB-435; 31.6 µM (inactive) with SF-295; 42.9 µM (inactive) in the experiment with SK-MEL-5; > 100 µM (inactive) in the experiment on DU-145; 21.3 µM (inactive) with MCF7. Moreover, the GI50 in the experiment with UACC-62 was > 100 µM (inactive); in the experiment on SK-MEL-28 it was > 100 µM (inactive); in the experiment on SF-268 it was > 100 µM (inactive); in the experiment on OVCAR-3, 30.5 µM (inactive); with 786-0, 92.3 µM (inactive); with TK-10, > 100 µM (inactive). Besides, the GI50 with SN12C and with BT-549 was > 100 µM (inactive) in each case.
Regarding `OCC(Cn1cncn1)(c1ccc(F)cc1F)n1cncn1` (stereo not given), the GI50 in the experiment on U-251 is > 100 µM (inactive); with PC-3 it was > 100 µM (inactive); with MDA-N, > 100 µM (inactive); in the experiment on A498, 38.5 µM (inactive); in the experiment with KM12, > 100 µM (inactive); in the experiment with SW-620, > 100 µM (inactive). For the same molecule, the GI50 in the experiment on SK-OV-3, with MDA-MB-435, in the experiment on SF-295, in the experiment on SK-MEL-5, with DU-145 and with MCF7 was > 100 µM (inactive) each time. In addition, the GI50 was > 100 µM (inactive) with UACC-62; > 100 µM (inactive) in the experiment on SK-MEL-28; > 100 µM (inactive) in the experiment on SF-268; > 100 µM (inactive) with OVCAR-3; 66.1 µM (inactive) in the experiment on 786-0; > 100 µM (inactive) in the experiment with TK-10. Besides, the GI50 with SN12C and in the experiment with BT-549 was > 100 µM (inactive) each time.
Take `COc1ccc(NC(C)c2ccncc2)cc1` (stereo not given): the GI50 in the experiment with U-251, in the experiment on PC-3, in the experiment with MDA-N, in the experiment with A498, with KM12 and with SW-620 was > 100 µM (inactive) throughout. Moreover, the GI50 in the experiment on SK-OV-3 is 18 µM (inactive); in the experiment with MDA-MB-435, > 100 µM (inactive); with SF-295, > 100 µM (inactive); in the experiment on SK-MEL-5, > 100 µM (inactive); in the experiment with DU-145 it was > 100 µM (inactive); in the experiment with MCF7, > 100 µM (inactive). For the same molecule, the GI50 in the experiment with SK-MEL-28, in the experiment on SF-268, in the experiment on OVCAR-3, in the experiment on 786-0, in the experiment on TK-10 and in the experiment on SN12C was > 100 µM (inactive) in each case. Moreover, the GI50 in the experiment with BT-549 is > 100 µM (inactive).
For the molecule `O=S(=O)(O)c1ccc2c(/N=N\c3cccc4ccccc34)c(O)c(S(=O)(=O)O)cc2c1`, the GI50 in the experiment with U-251, in the experiment with PC-3, in the experiment with MDA-N, in the experiment with A498, with KM12 and with SW-620 was > 100 µM (inactive) throughout. Besides, the GI50 in the experiment with SK-OV-3, with MDA-MB-435, with SF-295, in the experiment on SK-MEL-5, in the experiment with DU-145 and with MCF7 was > 100 µM (inactive) throughout. In addition, the GI50 with UACC-62, in the experiment with SK-MEL-28, in the experiment with SF-268, with OVCAR-3, in the experiment with 786-0 and with TK-10 was > 100 µM (inactive) throughout. Also, the GI50 in the experiment with BT-549 is > 100 µM (inactive).
In the case of `COP(=N[Si](C)(C)C)(OC)OC`, the GI50 in the experiment on U-251, in the experiment with PC-3, in the experiment with MDA-N, in the experiment with A498, in the experiment with KM12 and in the experiment with SW-620 was > 100 µM (inactive) in each case. Also, the GI50 with SK-OV-3, in the experiment on MDA-MB-435, in the experiment on SK-MEL-5, in the experiment with DU-145, in the experiment on MCF7 and in the experiment with UACC-62 was > 100 µM (inactive) in each case. Further, the GI50 in the experiment with SK-MEL-28, in the experiment with SF-268, with OVCAR-3, with 786-0, with TK-10 and in the experiment with SN12C was > 100 µM (inactive) in each case. Also, in the experiment on BT-549, the GI50 was > 100 µM (inactive).
For `CNc1cc(OCc2ccccc2)c(OC)cc1C(=O)N1CCC[C@H]1CO`, the GI50 with U-251, in the experiment with PC-3, in the experiment with MDA-N, in the experiment on A498, in the experiment with KM12 and in the experiment on SW-620 was > 100 µM (inactive) in each case. The GI50 in the experiment with SK-OV-3, with MDA-MB-435, in the experiment with SF-295, with SK-MEL-5, with DU-145 and in the experiment on MCF7 was > 100 µM (inactive) throughout. For the same molecule, the GI50 in the experiment on UACC-62, in the experiment on SK-MEL-28, with SF-268, with 786-0, in the experiment with TK-10 and in the experiment with SN12C was > 100 µM (inactive) in each case. The GI50 in the experiment with BT-549 was > 100 µM (inactive).
For `Clc1ccc(/C(=C/c2ccccc2)Cn2ccnc2)cc1`, the GI50 in the experiment on U-251 was 21.8 µM (inactive); with PC-3 it was 13.6 µM (inactive); in the experiment with MDA-N, 16.8 µM (inactive); with A498, 22.6 µM (inactive); in the experiment with KM12, 13.2 µM (inactive); in the experiment on SW-620, 27.6 µM (inactive). For the same molecule, the GI50 in the experiment on SK-OV-3 was 19.1 µM (inactive); with MDA-MB-435 it was 19.9 µM (inactive); in the experiment with SF-295 it was 12.7 µM (inactive); with SK-MEL-5, 11.1 µM (inactive); in the experiment on DU-145, 33 µM (inactive); with MCF7 it was 20.4 µM (inactive). Moreover, the GI50 was 28 µM (inactive) in the experiment with UACC-62; 30.1 µM (inactive) with SK-MEL-28; > 100 µM (inactive) with SF-268; 30.5 µM (inactive) with 786-0; 56.1 µM (inactive) with TK-10; 22.1 µM (inactive) with SN12C. In the experiment on BT-549, the GI50 was 22.4 µM (inactive).
